Series [1] deals with CT26-WT or C26GM colon carcinoma. Nature of the series: Tumor outgrowth after s.c. challenge with CT26-WT or C26GM. Conditions: for anti-tumor efficacy in immune deficient Rag-/- mice: BALB/c Rag-/- mice; for tumor outgrowth: Balb/c mice, CT26-WT or C26GM, sildenafil 20 mg/kg/day, tadalafil 2 mg/kg/day ip, treatment alone. Type of series: in vivo, mice (BALB/c).
For series [2] the following is noted: human, in vivo, cited from earlier work.
In series [3] the test system is C26GM colon carcinoma. The experiment in a line: Adoptive cell transfer (ACT) with sildenafil in C26GM-bearing mice, tumor size. Type of series: in vivo, mice (BALB/c).
The subject of series [4] is C26GM colon carcinoma. The experiment in a line: C26GM tumor outgrowth with sildenafil and anti-CD8 depleting antibody. It counts as in vivo, mice (BALB/c).
For series [5], the system named is tumor infiltrating CD8+ / CD4+ T cells. The experiment in a line: Tumor-infiltrating lymphocyte number and activation in sildenafil-treated tumor-bearing mice. Type of series: in vivo, mice (BALB/c).
A further series relates to purified CD11b+ MSCs. The experiment in a line: IL4Rα expression on purified CD11b+ MSCs cultured with sildenafil. To be noted: for IL4Rα expression in cultured MSCs: sildenafil 50 μg/ml in culture; for IFN-γ mediated IL4Rα up-regulation in cultured MSCs: sildenafil 50 μg/ml, IFN-γ 25 ng/ml added on day 2. It counts as cell-based, mice.
For series [6], the system named is PBLs (CD4+ and CD8+ T cells). The experiment in a line: Proliferation assay of PBLs stimulated with anti-CD3/CD28 antibody-coated beads. Type of series: cell-based, human.
Series [7] concerns tumor-derived CD11b+ MSCs / antigen-specific T cells. Nature of the series: MSC suppressive assay (CFSE dilution of antigen-specific T cells admixed with CD11b+ MSCs). Type of series: cell-based, mice. To be noted: sildenafil 50 μg/ml.
In series [8] the test system is tumor-associated MSCs (CD11b+ cells). The experiment in a line: In vivo sildenafil treatment of tumor-bearing mice; analysis of purified tumor-associated CD11b+ MSCs (cGMP EIA, Western blot, NO, arginase, IL4Rα flow cytometry). Conditions: sildenafil 20 mg/kg/day in vivo. On the set-up: species or system mice (BALB/c). For orientation: In western blotting, separated proteins are transferred to a membrane and probed.

A further series has as its system tumor. To be noted: cited from earlier work; for anti-tumor efficacy as single agent: used alone; for efficacy of antitumor vaccines when used as adjuvant: with vaccines.

“Also recorded” adds a separate entry of the source. Where two headings read alike, the source gives them in different places.

With `CN1CC(=O)N2[C@H](c3ccc4c(c3)OCO4)c3[nH]c4ccccc4c3C[C@@H]2C1=O` [tadalafil], in series [1], the “anti-tumor efficacy in immune deficient Rag-/- mice” value is given as “lack of anti-tumor efficacy” and the tumor outgrowth result is listed as “significantly delayed tumor outgrowth”. In series [2] (po), the “apparent oral clearance (CL/F)” value was 2.48 L/h and the “time of peak plasma concentration post-dose” value is “two”. Besides, the mean elimination half-life result in [2] is “about 17.5 h”.

For the compound `CCCc1nn(C)c2c(=O)[nH]c(-c3cc(S(=O)(=O)N4CCN(C)CC4)ccc3OCC)nc12` [sildenafil], the “tumor outgrowth, sildenafil without adoptive transfer” value in the series on C26GM colon carcinoma [3] (sildenafil 20 mg/kg/day in drinking water) was “statistically significant reduction in tumor outgrowth”. Further, the “anti-tumor efficacy, sildenafil coupled with adoptive immunotherapy (ACT)” value with C26GM colon carcinoma [3] (sildenafil 20 mg/kg/day plus 20×10^6 C26GM-primed splenocytes) is reported as “greatest anti-tumor efficacy”. Besides, in [1], the “anti-tumor efficacy in immune deficient Rag-/- mice” value is “lack of anti-tumor efficacy” and the tumor outgrowth result is “significantly delayed tumor outgrowth”. The “tumor outgrowth effect of sildenafil with anti-CD8 depleting antibody” value in the series with C26GM colon carcinoma [4] (anti-CD8 clone 2.43 on days 0, 2, 4, 6) is given as “completely abolished by CD8^+ depletion”. The tumor outgrowth entry in the series on C26GM colon carcinoma [4] (sildenafil alone) is given as “statistically significant reduction in tumor outgrowth”. Further, the “IL-2 production (GFP) by adoptively transferred vaccine-primed CD8+ T cells in the tumor” value in [5] (BALB/c-IL-2p/GFP splenocytes, sildenafil for 9 days) is given as “activated in the tumor microenvironment only with PDE5 inhibition”. In series [5] (C26GM, day 9, flow cytometry), the “CD4+ T cell tumor infiltration” value is “no increase in CD4^+ T cells”; the “CD8+ T cell tumor infiltration” value is “increase in intratumoral CD8^+ T cell infiltration”; the “activation of tumor-infiltrating CD8+ T cells (CD69 and CD25)” value is given as “increased the percentage of activated T cells; also recorded: significantly activated the tumor-infiltrating CD8^+ T cells”. In series [5] (C26GM, day 9, flow cytometry, listed as Sildenafil), the “CD8+ T cell tumor infiltration” value is reported as “greater CD8^+ tumor infiltration”. Also, the “intratumoral cellular infiltration (hematoxylin-eosin staining)” value in series [5] (CT26WT, day 15, sildenafil 20 mg/kg/day, vs untreated controls) is reported as “greater intratumoral cellular infiltration”. In series [5] (sildenafil-treated group, n=3, untreated 1.19±1.180), the “tumor-infiltrating CD8+ cells specific for AH1 (tetramer positive)” value is listed as 9.08%±0.905. Also, in the series with purified CD11b+ MSCs, the “IL4Rα expression in cultured MSCs” value is on record as “significantly reduced” and the “IFN-γ mediated IL4Rα up-regulation in cultured MSCs” value is “significantly reduced”. Moreover, in the series with purified CD11b+ MSCs (listed as Sildenafil), the “IL4Rα expression in cultured MSCs” value is reported as “down-regulates IL4Rα in cultured MSCs” and the “IFN-γ mediated IL4Rα up-regulation in cultured MSCs” value was “prevents IFN-γ mediated IL4Rα up-regulation”. Besides, the “proliferation of isolated CD3+ T cells” value in series [6] (data not shown) is “unable to increase T cell proliferation”. In addition, in [6] (sildenafil 50 μg/ml, 5 days), the “CD4+ and CD8+ proliferation of PBLs from head and neck cancer and multiple myeloma patients” value was “restore CD3/CD28-stimulated proliferation of PBLs; also recorded: significantly restored CD4^+ and CD8^+ proliferation in all the examined patients”; the “proliferation of PBLs from healthy donors” value is on record as “no effect on PBLs from healthy donors”. The “proliferation (responsiveness) of HA-specific CD4+ and CD8+ T cells in presence of tumor-derived MSCs” value in series [7] (BALB/c, C26GM-derived CD11b+ MSCs) is “almost completely restored”. Also, the “suppression of OVA-specific CD4+ T cells by MSCs from NOS2+/+ mice” value in series [7] (C57Bl/6 NOS2+/+, B16GM melanoma) is “reversed MSC suppression”. In series [7] (C57Bl/6 NOS2-/-, B16GM melanoma), the “responsiveness of OVA-specific CD4+ T cells with MSCs from NOS2-/- mice” value is “did not augment T cell responsiveness”. In addition, in series [7] (no MSCs added), the “T cell function in the groups lacking CD11b cells” value was “absence of a sildenafil-mediated enhancement in T cell function”. Moreover, in series [8] (NO3-NO2 in supernatant), the “NO production by intratumoral MSCs” value is on record as “lower NO production”. Further, the “NOS2 expression in intratumoral MSCs” value in [8] (Western blot) is “down-regulation of NOS2”. For the same compound, the “Arg-1 expression and activity in intratumoral MSCs” value in [8] (Western blot and arginase assay) was “down-regulated Arg-1”. In addition, the “intracellular cGMP levels in intratumoral MSCs” value in [8] (competitive enzyme immune assay, vs control group) was “higher intracellular cGMP levels than the control group”. Further, in series [8] (data not shown), the “intracellular cGMP in the non-MSC population” value is reported as “No significant differences”. Moreover, in [8] (flow cytometry), the “IL4Rα expression on intratumoral MSCs” value was “significantly reduced IL4Rα expression”.

For the compound `CC(=O)Oc1ccccc1C(=O)Oc1cccc(CO[N+](=O)[O-])c1` [nitroaspirin], the “anti-tumor efficacy as single agent” value is “no anti-tumor efficacy when used alone” in the series on tumor and “ineffective as a single agent” in the series on tumor (listed as nitro-aspirin). The “efficacy of antitumor vaccines when used as adjuvant” value is “enhanced the preventive and therapeutic efficacy of antitumor vaccines” in the series on tumor; “augmented the anti-tumor efficacy of vaccines on established tumors” in the series with tumor (listed as nitro-aspirin).

Source of the values: patent publication US9468643B2, “PDE5 inhibitor compositions and methods for immunotherapy” (The Johns Hopkins University, priority 2005, dated 2016).
